One molecule from patent publication EP2699223B1, “NEW COSMETIC USES OF GHK TRIPEPTIDE” (Sederma, priority 2011, dated 2012) can be followed below.

Peptide text beside a SMILES is read from it. * marks the point of attachment. Biotin = O=C1N[C@H]2[C@H](CS[C@H]2CCCCC(=O)*)N1

Common to all, as to type: in vivo, female volunteers
Assay [1] has as its system lashes. In words: Lash length by photo measurement and image analysis, double-blind clinical study, mascara on one eye versus placebo on the other. The note with it: length and diameter, 15 and 30 days. The protocol: The purpose of the clinical study was to evaluate the following among volunteers: • lash lengthening, • lash thickening, • reinforcement of lash anchorage (decrease in lash loss during mascara removal).
(§1) Lashes were photographed in a precise manner that could be reproduced and at a special angle so that lashes could be viewed perfectly. An image analysis was then performed on these photographs to quantify lash length and diameter in the central segment of the lids of female volunteers.
(§2) This was a double-blind study that employed non-invasive methods. 30 female volunteers used two mascaras: 1) VOLUMISING BLACK MASCARA (according to Example 1) containing 0.00066% of Biot-GHK and 0.01% of panthenol on one eye and 2) its placebo on the other eye (same formula without the active ingredients of the invention).
The measurements were performed before application (TO) then after 15 and 30 days of daily application. Application during the eight hours preceding a measurement day was not allowed. […]
Once the head was correctly positioned on an appropriate mechanism, the lashes were frontally photographed using a Reflex Nikon D300 (12.3 megapixel) digital camera with a "macro" (60 mm F/2.8 GED) lens and a flash. The images were analysed with special software. […] The lengths and diameters were measured on the lashes of segments S2, S3 and S4 (5 lashes per segment) on each side.

Assay [2] has as its system lashes. In words: Lash diameter by photo measurement and image analysis, same double-blind clinical study. The settings on record: after 30 days of daily use; 2% in a basic mascara formula. The protocol: as §1, §2
The measurements were performed before application (TO) then after 15 and 30 days of daily application. Application during the eight hours preceding a measurement day was not allowed.
The volunteers had to apply each mascara as follows: 3 brush strokes to the outside lashes, 4 brush strokes to the central lashes and 3 brush strokes to the interior lashes. […]
Once the head was correctly positioned on an appropriate mechanism, the lashes were frontally photographed using a Reflex Nikon D300 (12.3 megapixel) digital camera with a "macro" (60 mm F/2.8 GED) lens and a flash. The images were analysed with special software. […] The lengths and diameters were measured on the lashes of segments S2, S3 and S4 (5 lashes per segment) on each side. […]

Assay [3] relates to lashes. Kind of assay: Blind clinical evaluation of lash photos by 3 trained experts (lengthening, thickening). The settings on record: summary statement. The protocol: Concurrent to this quantitative metrological study, two other evaluations were performed: one clinical evaluation in which trained experts scored photos and another evaluation in which the volunteers themselves evaluated the perceived effects using a multi-item questionnaire.
as §2
Table 3: Blind evaluation performed by 3 trained experts on lash lengthening in photos of 30 volunteers.
Table 4: Blind evaluation performed by 3 trained experts on increased lash diameter in photos of 30 volunteers

As to `NCCCC[C@H](NC(=O)[C@H](Cc1c[nH]cn1)NC(=O)CNC(=O)CCCC[C@@H]1SC[C@@H]2NC(=O)N[C@@H]21)C(=O)O` [Biot-GHK peptide, Biotinoyl tripeptide-1] (Biotin-Gly-His-Lys-OH), the “Result higher than the increase of parameters with the placebo” value in assay [1] is “about 60%”. The “Increase printed as "volume"” value in assay [2] was “+14.2 mm^3”. Also, in assay [3], the “Subjects in whom the variation was observed (first of "respectively": length)” value was 87% and the “Subjects in whom the variation was observed (second of "respectively": diameter, printed volume)” value amounted to 73%.
